Each structure is given as a SMILES string. Like-named read-outs stand apart in the source and are kept apart here.

The term ED50 denotes the dose that gives a 50% effect, or the effect in half of the subjects.

Common to all, as to assay type: in vivo, rat (male FW 49)
Experiment [1] relates to Adjuvant arthritis-rat. Description: Adjuvant arthritis test on rats (M.butyricum). As to conditions: po, 504 h, 21st day, once daily for 20 days by esophageal tube. As for the experimental part:
The adjuvant arthritis tests on rats were performed in analogy to the procedure described by Rosenthale and Nagra [Proc. Soc. exp. Biol. Med. 125, 149 (1967)].
Male FW 49-rats were given a subplantar injection of 0.1 ml of a 1% suspension of M.butyricum in viscous paraffin oil in a hind paw. The test compound was administered, beginning with the M.butyricum injection, once daily for 20 days by esophageal tube.
On the 21st day after inducing the arthritis, the volumes of the right paw (non-specific primary reaction at the place of injection) and the left paw (immunologically predicated specific secondary reaction) of the animals treated with the test compound were compared with those of the blind-treated control animals. From the swelling reduction obtained with the various doses, an ED50 was graphically determined.

Experiment [2] has as its system Carrageenin-induced edema of the hind paw of the rat. Description: Carrageenin-induced edema of the hind paw of the rat (anti-exudative effect). As to conditions: Rattus norvegicus, po, 3 h, 60 minutes before provocation, swelling 3 hours after, read-out: Carrageenin edema ED35 per os. The method, then: (§1) The compunds were tested for their anti-exudative effect on Kaolin-induced edema and carrageenin-induced edema in the hind paw of the rat after oral administration to the rat.
(§2) The test compound was administered orally to male FW 49 rats weighing 120-150 gm by means of an esophageal tube 30 minutes before inducing the edema. 5 hours after inducing the edema the average size of the swelling in the rats treated with the test compound was compared with the size of the swelling in blind-treated control animals. By graphic extrapolation the dose leading to a 35% of the swelling (ED35) was calculated from the percentage reduction in the size of the swelling caused by the administration of different doses.
b. Carrageenin-induced edema of the hind paw of the rat
(§3) The carrageenin edema was induced according to the method of Winder et al. [Proc. Soc. exp. Biol. Med. 111, 544 (1962)] by subplanar injection of 0.05 ml of a 1% solution of carrageenin in a 0.85% solution of sodium chloride. The test compound was administered 60 minutes before the provocation of the edema.
(§4) For the calculation of the reductive effect on the edema, the size of the swelling was measured 3 hours after the provocation of the edema. All other details were the same as described above in the case of the kaolin edema.
On the technique in general: In the carrageenan paw model, swelling and tenderness develop within hours.

Experiment [3] relates to Kaolin-induced edema of the hind paw of the rat. Description: Kaolin-induced edema of the hind paw of the rat (anti-exudative effect). As to conditions: Rattus norvegicus, po, 5 h, 30 minutes before inducing edema, swelling 5 hours after, read-out: Kaolin edema ED35 per os. The method, then: as §1
a. Kaolin-induced edema of the hind paw of the rat
(§5) The kaolin edema was induced according to the method given by Hillebrecht [Arzneimittel-Forsch. 4, 607 (1954)] by subplanar injection of 0.05 ml of a 10% suspension of kaolin in a 0.85% sodium chloride solution. Measurement of the thickness of the paws was effected using the technique of Doepfner and Cerletti [Int. Arch. Allergy Immunol. 12, 89 (1958)].
as §2

Experiment [4] deals with Kaolin edema and carrageenin edema of the hind paw of the rat. Briefly: Average value of kaolin edema and carrageenin edema. As to conditions: Rattus norvegicus, per os, Table I. The method, then:
as §1, §5, §2, §3, §4

Where [5] appears, read: left paw volume, read-out: Adjuvant arthritis-rat ED50 per os, Secondary reaction.
Setting [6] is: right paw volume, read-out: Adjuvant arthritis-rat ED50 per os, Primary reaction.

For the compound `CC(=O)CC(C)c1ccc(C2CCCCC2)c(Cl)c1` (centres unmarked) [Q, 4-(3-chloro-4-cyclohexyl-phenyl)-2-pentanone], the ED50 in experiment [1] (setting [5]) was less than 0.2 mg/kg; in experiment [1] (setting [6]) it was less than 0.4 mg/kg. Also, the ED35 was determined as 2.5 mg/kg in experiment [2] (Table I); 2.5 mg/kg in experiment [2] (Table II); 5 mg/kg in experiment [3] (Table I); 5 mg/kg in experiment [3] (Table II); 3.75 mg/kg in experiment [4].
For `C/C(=C\C(C)O)c1ccc(C2CCCCC2)c(Cl)c1` (centres unmarked) [R, (e)-4-(3-chloro-4-cyclohexyl-phenyl)-3-pentene-2-ol], the ED50 in experiment [1] (setting [5]) is less than 0.7 mg/kg; in experiment [1] (setting [6]), less than 0.3 mg/kg. Further, the ED35 in experiment [2] (Table I) came out at 3.1 mg/kg; in experiment [2] (Table II) it was 3.1 mg/kg; in experiment [3] (Table I), 4.8 mg/kg; in experiment [3] (Table II) it was 4.8 mg/kg; in experiment [4] it was 3.95 mg/kg.

(Values after patent publication US3950427A, “Araliphatic ketones and carbinols” (Boehringer Ingelheim GmbH, priority 1973, dated 1976).)
